Biological target: P. falciparum apicoplast DNA polymerase (Pf-apPOL) (Plasmodium falciparum, UniProt Q8ILY1)
Test: Fluorescence-based high-throughput DNA polymerase assay (molecular beacon), primary screen and dose-response
Assay type: biochemical
Settings: for DNA Pol: 90 min, 10 µM; for IC50: supplemental file 2, sheet IC50 nontoxic compounds, Pf-apPOL
Method in brief: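 Single-point screening used 10 µM compound with 20 nM polymerase, 20 nM hairpin substrate and 6 µM dNTPs for 90 min at 25 °C. Confirmatory titrations (2.5–80 µM) followed fluorescence at three times, and IC50 was derived from a fit including a cooperativity term n.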

Sequence of P. falciparum apicoplast DNA polymerase (Pf-apPOL) (Q8ILY1 entry or part of it): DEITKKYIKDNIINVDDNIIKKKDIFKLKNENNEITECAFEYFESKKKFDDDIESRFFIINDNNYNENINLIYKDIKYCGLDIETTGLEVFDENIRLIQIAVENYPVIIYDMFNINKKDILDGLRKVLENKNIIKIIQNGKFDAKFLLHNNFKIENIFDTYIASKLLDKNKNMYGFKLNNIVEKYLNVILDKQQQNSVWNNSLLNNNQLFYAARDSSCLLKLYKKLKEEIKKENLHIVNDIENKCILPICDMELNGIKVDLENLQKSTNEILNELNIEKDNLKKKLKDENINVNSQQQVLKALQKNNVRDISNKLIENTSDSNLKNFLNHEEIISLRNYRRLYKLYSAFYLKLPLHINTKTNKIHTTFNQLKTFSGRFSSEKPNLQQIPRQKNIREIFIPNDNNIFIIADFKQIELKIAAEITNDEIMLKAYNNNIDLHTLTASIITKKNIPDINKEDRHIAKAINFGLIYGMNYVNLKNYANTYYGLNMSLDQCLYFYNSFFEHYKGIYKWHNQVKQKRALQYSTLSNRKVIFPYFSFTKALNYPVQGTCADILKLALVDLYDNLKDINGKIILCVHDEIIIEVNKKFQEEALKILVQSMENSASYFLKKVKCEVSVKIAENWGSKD

## COC(=O)c1sc(-c2ccc(C(C)(C)C)cc2)cc1NC(=O)CCC(=O)O [Molecule 87, COC(=O)c1sc(cc1NC(=O)CCC(=O)O)c1ccc(cc1)C(C)(C)C]
'DNA Pol' of the 186 hits list (screen value)
  DNA Pol: 96
DRC-1, conc 2.5
  % inhibition Apo pol 10': 19.7971%
DRC-1, conc 5
  % inhibition Apo pol 10': 30.0237%
DRC-1, conc 10
  % inhibition Apo pol 10': 55.209%
DRC-1, conc 20
  % inhibition Apo pol 10': 85.0828%
DRC-1, conc 40
  % inhibition Apo pol 10': 94.7696%
DRC-1, conc 80
  % inhibition Apo pol 10': 96.2943%
DRC-1, 90', conc 2.5
  % inhibition Apol 90': 13.7781%
DRC-1, 90', conc 5
  % inhibition Apol 90': 20.5036%
DRC-1, 90', conc 10
  % inhibition Apol 90': 48.04%
DRC-1, 90', conc 20
  % inhibition Apol 90': 81.7697%
DRC-1, 90', conc 40
  % inhibition Apol 90': 91.7617%
DRC-1, 90', conc 80
  % inhibition Apol 90': 95.9877%
DRC-1, 180', conc 2.5
  % inhibition apPOL 180': 10.0944%
DRC-1, 180', conc 5
  % inhibition apPOL 180': 11.9548%
DRC-1, 180', conc 10
  % inhibition apPOL 180': 36.7594%
DRC-1, 180', conc 20
  % inhibition apPOL 180': 75.8676%
DRC-1, 180', conc 40
  % inhibition apPOL 180': 89.861%
DRC-1, 180', conc 80
  % inhibition apPOL 180': 95.0797%
DRC-2, conc 2.5
  % inhibition Apo pol 5': 12%
DRC-2, conc 5
  % inhibition Apo pol 5': 9%
DRC-2, conc 10
  % inhibition Apo pol 5': 35%
DRC-2, conc 20
  % inhibition Apo pol 5': 50%
DRC-2, conc 40
  % inhibition Apo pol 5': 60%
DRC-2, conc 80
  % inhibition Apo pol 5': 59%
DRC-2, concentration 5
  % inhibition Apo pol 5': 9%
DRC-2, 40', conc 2.5
  % inhibition Apol 40': 11%
DRC-2, 40', conc 5
  % inhibition Apol 40': 9%
DRC-2, 40', conc 10
  % inhibition Apol 40': 40%
DRC-2, 40', conc 20
  % inhibition Apol 40': 61%
DRC-2, 40', conc 40
  % inhibition Apol 40': 72%
DRC-2, 40', conc 80
  % inhibition Apol 40': 72%
DRC-2, 40', concentration 5
  % inhibition Apol 40': 9%
DRC-2, 40', concentration 40
  % inhibition Apol 40': 72%
DRC-2, 40', concentration 80
  % inhibition Apol 40': 72%
DRC-2, 90', conc 2.5
  % inhibition ApPOL 90': 9%
DRC-2, 90', conc 5
  % inhibition ApPOL 90': 7%
DRC-2, 90', conc 10
  % inhibition ApPOL 90': 38%
DRC-2, 90', conc 20
  % inhibition ApPOL 90': 62%
DRC-2, 90', conc 40
  % inhibition ApPOL 90': 74%
DRC-2, 90', conc 80
  % inhibition ApPOL 90': 75%
DRC-2, 90', concentration 2.5
  % inhibition ApPOL 90': 9%
DRC-2, 180', conc 2.5
  % inhibition apPOL 180': 6%
DRC-2, 180', conc 5
  % inhibition apPOL 180': 4%
DRC-2, 180', conc 10
  % inhibition apPOL 180': 32%
DRC-2, 180', conc 20
  % inhibition apPOL 180': 57%
DRC-2, 180', conc 40
  % inhibition apPOL 180': 72%
DRC-2, 180', conc 80
  % inhibition apPOL 180': 73%
DRC-2, 180', concentration 40
  % inhibition apPOL 180': 72%
Primary screen value, "DNA Pol"
  DNA Pol: 96

## COC(=O)c1sc(-c2ccc(C(C)(C)C)cc2)cc1NC(=O)CCC(=O)O [Molecule 87]
  IC50: 8.86 µM

## Cc1cc(C)c2c(O)nc(SCC(=O)c3ccc(O)c(O)c3)nc2n1 [Molecule 88, Cc1cc(C)c2c(n1)nc(nc2O)SCC(=O)c1ccc(c(c1)O)O]
DRC-1, concentration 2.5
  % inhibition Apo pol 10': 66.1048%
DRC-1, concentration 5
  % inhibition Apo pol 10': 84.19%
DRC-1, concentration 10
  % inhibition Apo pol 10': 90.4679%
DRC-1, concentration 20
  % inhibition Apo pol 10': 96.9488%
DRC-1, concentration 40
  % inhibition Apo pol 10': 98.8856%
DRC-1, concentration 80
  % inhibition Apo pol 10': 98.1462%
DRC-1, 90', concentration 2.5
  % inhibition Apol 90': 42.8406%
DRC-1, 90', concentration 5
  % inhibition Apol 90': 64.0677%
DRC-1, 90', concentration 10
  % inhibition Apol 90': 76.3822%
DRC-1, 90', concentration 20
  % inhibition Apol 90': 90.5503%
DRC-1, 90', concentration 40
  % inhibition Apol 90': 93.4235%
DRC-1, 90', concentration 80
  % inhibition Apol 90': 90.6466%
DRC-1, 180', concentration 2.5
  % inhibition apPOL 180': 28.0012%
DRC-1, 180', concentration 5
  % inhibition apPOL 180': 48.1017%
DRC-1, 180', concentration 10
  % inhibition apPOL 180': 62.9235%
DRC-1, 180', concentration 20
  % inhibition apPOL 180': 84.8942%
DRC-1, 180', concentration 40
  % inhibition apPOL 180': 86.2556%
DRC-1, 180', concentration 80
  % inhibition apPOL 180': 82.2791%
DRC-2, 40', concentration 10 (unit not given)
  % inhibition Apol 40': 63%
DRC-2, 40', concentration 20 (unit not given)
  % inhibition Apol 40': 71%
DRC-2, 40', concentration 80 (unit not given)
  % inhibition Apol 40': 54%
DRC-2, 90', concentration 10 (unit not given)
  % inhibition ApPOL 90': 63%
DRC-2, 90', concentration 20 (unit not given)
  % inhibition ApPOL 90': 71%
DRC-2, 90', concentration 40 (unit not given)
  % inhibition ApPOL 90': 71%
DRC-2, 180', concentration 10 (unit not given)
  % inhibition apPOL 180': 54%
DRC-2, 180', concentration 20 (unit not given)
  % inhibition apPOL 180': 63%
DRC-2, 180', concentration 40 (unit not given)
  % inhibition apPOL 180': 63%
DRC-2, concentration 2.5
  % inhibition Apo pol 5': 35%
DRC-2, concentration 5
  % inhibition Apo pol 5': 43%
DRC-2, concentration 10
  % inhibition Apo pol 5': 50%
DRC-2, concentration 20
  % inhibition Apo pol 5': 55%
DRC-2, concentration 40
  % inhibition Apo pol 5': 58%
DRC-2, concentration 80
  % inhibition Apo pol 5': 31%
DRC-2, 40', concentration 2.5
  % inhibition Apol 40': 32%
DRC-2, 40', concentration 5
  % inhibition Apol 40': 45%
DRC-2, 40', concentration 10
  % inhibition Apol 40': 63%
DRC-2, 40', concentration 20
  % inhibition Apol 40': 71%
DRC-2, 40', concentration 40
  % inhibition Apol 40': 72%
DRC-2, 40', concentration 80
  % inhibition Apol 40': 54%
DRC-2, 90', concentration 2.5
  % inhibition ApPOL 90': 28%
DRC-2, 90', concentration 5
  % inhibition ApPOL 90': 42%
DRC-2, 90', concentration 10
  % inhibition ApPOL 90': 63%
DRC-2, 90', concentration 20
  % inhibition ApPOL 90': 71%
DRC-2, 90', concentration 40
  % inhibition ApPOL 90': 71%
DRC-2, 90', concentration 80
  % inhibition ApPOL 90': 56%
DRC-2, 180', concentration 2.5
  % inhibition apPOL 180': 18%
DRC-2, 180', concentration 5
  % inhibition apPOL 180': 27%
DRC-2, 180', concentration 10
  % inhibition apPOL 180': 54%
DRC-2, 180', concentration 20
  % inhibition apPOL 180': 63%
DRC-2, 180', concentration 40
  % inhibition apPOL 180': 63%
DRC-2, 180', concentration 80
  % inhibition apPOL 180': 53%
Primary screen value of the 186 hits, unit not given
  DNA Pol: 85
Primary screen value, head "DNA Pol", unit not given
  DNA Pol: 85

## Cc1cc(C)c2c(O)nc(SCC(=O)c3ccc(O)c(O)c3)nc2n1 [Molecule 88]
  IC50: < 2.5 µM
